Tested on: carbon tetrachloride induced liver injury in CLEC1b fl/fl PF4cre mice
Assay: Carbon tetrachloride injection in CLEC1b fl/fl PF4cre (KO) mice pre-treated with Etanercept
Format: in vivo, mouse
Settings: for Number of neutrophils per gram of liver tissue: 48 hours after carbon tetrachloride injection
Protocol: Kupffer cells isolated from WT mouse livers were plated in a tissue culture well, treated with lipopolysaccharide (LPS) and incubated with either platelets from CLEC2 deficient animals or WT platelets. (A) Production of TNF-alpha by Kupffer cells was measured in response to LPS plus either CLEC-2 deficient (KO) platelets or WT platelets (n=4 per group). (B) Isolated Kupffer cells (F480^+, shown in green), were incubated with either CLEC2 deficient or WT platelets (CD41^+, shown in purple). DAPI (blue) was used as a nuclear stain. Representative images (63× magnification) are shown. (C) Serum was isolated from WT and CLEC1b fl/fl PF4cre (KO) mice at 24 hours after carbon tetrachloride injection and serum TNF-alpha levels measured by ELISA. Levels are shown as picograms/ml (n=6/group) (*P<0.05, **P<0.01, ***P<0.001), (D) CLEC1b fl/fl PF4cre mice were pre-treated with an anti-TNF-alpha monoclonal antibody (Etanercept) before carbon tetrachloride injection (KO+AB). WT and CLEC1b fl/fl PF4cre mice not pre-treated before carbon tetrachloride injection were used as controls (WT and KO, accordingly). Mice were sacrificed 48 hours after the carbon tetrachloride injection. […]
Mouse livers were harvested after the animal was euthanized under deep sedation after cardiac puncture. […] The resulting immune cells were then purified using an Optiprep gradient (Sigma) and analysed by flow cytometry. […] Absolute cell counts were determined with AccuCheck Counting Beads (Invitrogen), and the number of cells was normalised to the total liver weight. Data were analysed using a CyAn ADP flow cytometer (Beckman Coulter) or a BD LSRII using Summit version 4.3 or FlowJo version 10.0.7 software where appropriate.
Serum was isolated from whole blood and levels of liver-specific enzymes AST and ALT were measured on a clinical autoanalyser, according to standard protocols in the Biochemistry Department at the Birmingham Women's Hospital, Birmingham, UK. […]

## Etanercept
Compared to CLEC1b fl/fl PF4cre mice not pre-treated with antibody (FIG. 3D)
  Number of neutrophils per gram of liver tissue: substantially reduced
pre-treated KO mice relative to WT control (FIG. 3D)
  Number of neutrophils per gram of liver tissue: comparable to WT control
48 hours post carbon tetrachloride, compared to CLEC-2 deficient mice not given antibody (FIG. 3E)
  Serum ALT levels: considerably higher
